pIC50: −log10 of the molar value. Where a name gives a salt, the structure may show the parent alone.
How the values were obtained:
A549 cells [1] = experiment: Western blot of BCL2, cIAP1 and cIAP2 expression in A549 cells; assay type: cell-based; conditions: 24 h
A549 cells [2] = experiment: Caspase activation in A549 cells; assay type: cell-based; conditions: cisplatin 12.5 μM 24 h
A549 cells [3] = experiment: Random cell migration / 3D collagen-I invasion of A549 cells; assay type: cell-based; conditions: for cell migration/invasiveness: inhibitors 10 μM
[4] = biological target: RSK4 N-terminal kinase domain (RSK4-NTKD) (Homo sapiens, UniProt Q9UK32); experiment: Differential scanning fluorimetry; assay type: binding; conditions: inactive/dephosphorylated (APO) vs fully-active (ATP)
RSK4 [5] = biological target: T1, RSK4 (Homo sapiens, UniProt Q9UK32); experiment: biochemical; conditions: for activity in RSK4 HTRF-activation assay (inhibitor or inactive): floxacin family members
[6] = system: patients undergoing chemotherapy; experiment: Retrospective overall survival analysis of the SIGNIFICANT trial; assay type: in vivo, human
cIAP1 and cIAP2 = experiment: Cellular cIAP1 and cIAP2 expression after levofloxacin; assay type: cell-based; conditions: concentrations achievable from the clinical trial dose
RSK4 [7] = biological target: T1, RSK4; assay type: biochemical
ERK = ERK (Homo sapiens, UniProt P28482); experiment: ERK activity; assay type: biochemical
panel of 140 kinases = experiment: In-vitro activity screen against a panel of 140 kinases; assay type: biochemical; conditions: 10 μM
RSK1 = RSK1 (Homo sapiens, UniProt Q15418); experiment: RSK1 activation in cells; assay type: cell-based; conditions: preliminary data
A549-Luc xenograft = experiment: A549-Luc subcutaneous xenograft in nude mice; assay type: in vivo; conditions: 30 mg/kg daily oral gavage, 14 days
A549 cells [8] = experiment: Cisplatin/taxol sensitisation of A549 cells; assay type: cell-based
bladder cancer explants = experiment: Patient-derived bladder cancer explants; conditions: synergistic in two, additive in one

T1 sequence (Q9UK32 whole entry): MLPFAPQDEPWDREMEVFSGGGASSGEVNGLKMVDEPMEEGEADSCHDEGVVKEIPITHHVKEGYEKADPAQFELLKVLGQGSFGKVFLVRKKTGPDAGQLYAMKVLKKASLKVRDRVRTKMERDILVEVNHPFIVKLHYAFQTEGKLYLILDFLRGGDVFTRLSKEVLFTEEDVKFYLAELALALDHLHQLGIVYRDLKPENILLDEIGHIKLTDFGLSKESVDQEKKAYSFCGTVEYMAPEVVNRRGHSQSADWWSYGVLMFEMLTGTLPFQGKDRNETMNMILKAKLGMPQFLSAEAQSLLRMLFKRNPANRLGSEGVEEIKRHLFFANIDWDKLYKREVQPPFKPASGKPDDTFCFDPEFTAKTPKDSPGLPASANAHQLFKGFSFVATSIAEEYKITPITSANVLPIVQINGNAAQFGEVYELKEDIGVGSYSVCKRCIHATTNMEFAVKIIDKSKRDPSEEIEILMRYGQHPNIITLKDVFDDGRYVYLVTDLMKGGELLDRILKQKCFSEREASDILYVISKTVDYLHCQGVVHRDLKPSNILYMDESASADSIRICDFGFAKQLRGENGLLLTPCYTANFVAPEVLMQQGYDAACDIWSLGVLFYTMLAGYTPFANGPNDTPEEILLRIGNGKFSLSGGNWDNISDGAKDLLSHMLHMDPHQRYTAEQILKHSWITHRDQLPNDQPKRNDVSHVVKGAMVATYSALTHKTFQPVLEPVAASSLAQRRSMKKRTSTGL
Chain of RSK4 N-terminal kinase domain (RSK4-NTKD) (Q9UK32 48-349): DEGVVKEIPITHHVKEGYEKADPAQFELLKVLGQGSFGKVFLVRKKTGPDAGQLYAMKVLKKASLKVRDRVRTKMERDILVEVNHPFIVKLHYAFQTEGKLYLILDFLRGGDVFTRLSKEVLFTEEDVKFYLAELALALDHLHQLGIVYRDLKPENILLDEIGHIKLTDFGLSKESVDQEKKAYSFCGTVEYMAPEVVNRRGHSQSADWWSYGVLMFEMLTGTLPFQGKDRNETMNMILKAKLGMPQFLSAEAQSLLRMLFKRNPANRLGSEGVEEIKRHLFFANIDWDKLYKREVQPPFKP
Chain of ERK (P28482 whole entry): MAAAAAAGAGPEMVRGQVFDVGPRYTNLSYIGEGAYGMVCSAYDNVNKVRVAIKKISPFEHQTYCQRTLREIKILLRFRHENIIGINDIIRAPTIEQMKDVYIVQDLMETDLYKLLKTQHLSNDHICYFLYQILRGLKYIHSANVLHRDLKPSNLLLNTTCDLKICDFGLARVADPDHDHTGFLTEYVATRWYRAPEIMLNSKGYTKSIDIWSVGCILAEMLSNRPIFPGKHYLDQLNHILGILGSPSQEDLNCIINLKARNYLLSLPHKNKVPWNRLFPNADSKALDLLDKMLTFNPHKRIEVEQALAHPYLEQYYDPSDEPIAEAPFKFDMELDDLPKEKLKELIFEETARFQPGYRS
Chain of RSK1 (Q15418 whole entry): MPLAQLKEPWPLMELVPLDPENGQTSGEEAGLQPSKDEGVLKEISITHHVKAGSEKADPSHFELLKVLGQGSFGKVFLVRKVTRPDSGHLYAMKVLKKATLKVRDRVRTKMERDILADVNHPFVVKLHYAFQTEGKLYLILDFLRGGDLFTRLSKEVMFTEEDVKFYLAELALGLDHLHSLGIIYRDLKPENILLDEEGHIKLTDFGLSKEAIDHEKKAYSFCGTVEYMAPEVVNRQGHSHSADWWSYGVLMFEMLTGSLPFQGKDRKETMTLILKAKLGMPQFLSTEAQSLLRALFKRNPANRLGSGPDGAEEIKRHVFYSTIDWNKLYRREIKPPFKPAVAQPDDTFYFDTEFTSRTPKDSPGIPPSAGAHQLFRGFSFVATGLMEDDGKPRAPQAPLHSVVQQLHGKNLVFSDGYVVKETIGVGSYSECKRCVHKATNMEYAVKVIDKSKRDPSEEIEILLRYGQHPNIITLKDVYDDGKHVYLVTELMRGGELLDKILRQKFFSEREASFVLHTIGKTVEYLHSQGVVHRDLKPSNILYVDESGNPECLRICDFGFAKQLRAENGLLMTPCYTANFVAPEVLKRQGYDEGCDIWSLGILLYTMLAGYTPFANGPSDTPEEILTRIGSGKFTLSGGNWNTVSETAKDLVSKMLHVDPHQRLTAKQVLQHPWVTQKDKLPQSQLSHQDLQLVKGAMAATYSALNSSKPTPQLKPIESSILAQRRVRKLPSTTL

CC(C)CCN1c2nc(Nc3cc(F)c(O)c(F)c3)ncc2N(C)C(=O)C1C (centres unmarked) [BI-D1870]
expression of BCL2 and cIAP1/2 (A549 cells [1]): an effect not seen | caspase activation in response to cisplatin (A549 cells [2]): failed to promote cisplatin-induced caspase activation

CC(=O)O[C@@H]1[C@@H](OC(C)=O)[C@@H](O)[C@H](Oc2c(-c3ccc(O)cc3)oc3cc(O)cc(O)c3c2=O)O[C@H]1C [SL-0101]
invasiveness of A549 cells with pan-RSK inhibitor (A549 cells [3]): promotes lung cancer invasiveness

O=C(O)c1cn(C2CC2)c2cc(N3CCNCC3)c(F)cc2c1=O [ciprofloxacin]
expression of BCL2 and cIAP1/2 (A549 cells [1]): an effect not seen | cell migration/invasiveness (A549 cells [3]): did not impair cell invasiveness | binding to RSK4-NTKD [4]: failed to bind RSK4

CN1C[C@@H]2C[C@H]1CN2c1cc2c(cc1F)c(=O)c(C(=O)O)cn2C1CC1 [danofloxacin]
activity in RSK4 HTRF-activation assay (inhibitor or inactive) (RSK4 [5]): inactive analogues | cell migration/invasiveness (A549 cells [3]): did not impair cell invasiveness

C[C@H]1COc2c(N3CCN(C)CC3)c(F)cc3c(=O)c(C(=O)O)cn1c23 [levofloxacin]
hazard ratio for overall survival vs placebo ([6]; adherent patients (n=937), 95% CI 0.69-0.999, p=0.048): 0.83 | hazard ratio in lung and bladder cancer patients compared to the entire cohort ([6]; lung and bladder cancer patients): further improved | hazard ratio for overall survival vs placebo ([6]; non-adherent patients (n=543), 95% CI 0.89-1.40, p=0.36): 1.11 | median overall survival ([6]; patients adhering to trial treatment (n=937)): 72 months | cellular cIAP1 and cIAP2 expression (cIAP1 and cIAP2): decreased cellular cIAP1 and cIAP2 expression | activity in RSK4 HTRF-activation assay (inhibitor or inactive) (RSK4 [5]): inhibited RSK4 activation

CN1CCN(c2c(F)cc3c(=O)c(C(=O)O)cn4c3c2OCN4C)CC1 [marbofloxacin]
activity in RSK4 HTRF-activation assay (inhibitor or inactive) (RSK4 [5]): additional inhibitors

COc1c(N2C[C@@H]3CCCN[C@@H]3C2)c(F)cc2c(=O)c(C(=O)O)cn(C3CC3)c12 [moxifloxacin]
pIC50 (RSK4 [5]): 5.21 | mode of inhibition of RSK4 activation (RSK4 [5]): non-ATP competitive reversible inhibitor of RSK4 activation | preference RSK4 activation vs fully-active RSK4 (RSK4 [5]): preference for preventing RSK4 activation rather than inhibiting fully-active RSK4 | selectivity RSK4 vs RSK1 (RSK4 [5]): favoured RSK4 over RSK1 | inhibition at 30 µM (RSK4 [5]; read-out: inhibition of RSK4 activation): > 75% | α (non-competitive binding to Enzyme and Enzyme-Substrate state) (RSK4 [7]): 1 | effect on ATP Km and Vmax of RSK4 (RSK4 [7]; sub-maximal inhibition): maintained Km and displayed reduced Vmax | effect on ERK activity (ERK): did not interfere with ERK activity | cell migration/invasiveness (A549 cells [3]): shared this ability

CCn1cc(C(=O)O)c(=O)c2cnc(N3CCCC3)nc21 [piromidic acid]
activity in RSK4 HTRF-activation assay (inhibitor or inactive) (RSK4 [5]): inactive analogues

CN1CCN(c2c(F)cc3c(=O)c(C(=O)O)cn4c3c2SCC4)CC1 [rufloxacin]
activity in RSK4 HTRF-activation assay (inhibitor or inactive) (RSK4 [5]): additional inhibitors

NC1CCN(c2nc3c(cc2F)c(=O)c(C(=O)O)cn3-c2ccc(F)cc2F)C1 (centres unmarked) [tosufloxacin, tosufloxacin tosylate]
activity in RSK4 HTRF-activation assay (inhibitor or inactive) (RSK4 [5]): additional inhibitors | cell migration/invasiveness (A549 cells [3]): shared this ability

N[C@@H]1[C@H]2CN(c3nc4c(cc3F)c(=O)c(C(=O)O)cn4-c3ccc(F)cc3F)C[C@@H]12 [trovafloxacin]
inhibition of other kinases (panel of 140 kinases): No other kinase was substantially inhibited | activation of RSK1 in cells (RSK1): does not inhibit the activation of RSK1 in cells | expression of BCL2 and cIAP1/2 (A549 cells [1]): decreased expression of BCL2 and cIAP1/2 | pIC50 (RSK4 [5]): 5.00 | activity in RSK4 HTRF-activation assay (inhibitor or inactive) (RSK4 [5]): additional inhibitors | tumour growth vs vehicle-only (A549-Luc xenograft): significantly (p<0.05) decreased tumour growth | caspase activation in response to cisplatin (A549 cells [2]): promotion of caspase activation | cell migration/invasiveness (A549 cells [3]): reproduced the inhibition of cell migration/invasiveness | sensitisation of A549 cells to cisplatin (A549 cells [8]; 7.5 μM, cisplatin 12.5 μM for 72 h): reducing the IC50 for cisplatin | concentration giving maximal potentiation of cisplatin or taxol effects (A549 cells [8]; A549 cells): ≈ 10 μM | nature of the relationship with cisplatin (A549 cells [8]; A549 cells): synergistic | binding to RSK4-NTKD [4]: bound the inactive/dephosphorylated, but not the fully-active | benefit of combination with cisplatin in explants (bladder cancer explants): beneficial in 3 out of 4 patient-derived bladder cancer explants

— PMC7611705 (Science translational medicine, 2021)
